From ChEMBL document CHEMBL1136486, “Novel 3,4-dihydroquinolin-2(1H)-one inhibitors of human glycogen phosphorylase a” (Bioorg Med Chem Lett, 2003)

Assays:
[1] = target: T1, Glycogen phosphorylase, liver form (Homo sapiens, UniProt P06737); assay: Inhibitory concentration against recombinant human liver glycogen phosphorylase a (HLGPa)
T1 sequence (P06737 whole entry): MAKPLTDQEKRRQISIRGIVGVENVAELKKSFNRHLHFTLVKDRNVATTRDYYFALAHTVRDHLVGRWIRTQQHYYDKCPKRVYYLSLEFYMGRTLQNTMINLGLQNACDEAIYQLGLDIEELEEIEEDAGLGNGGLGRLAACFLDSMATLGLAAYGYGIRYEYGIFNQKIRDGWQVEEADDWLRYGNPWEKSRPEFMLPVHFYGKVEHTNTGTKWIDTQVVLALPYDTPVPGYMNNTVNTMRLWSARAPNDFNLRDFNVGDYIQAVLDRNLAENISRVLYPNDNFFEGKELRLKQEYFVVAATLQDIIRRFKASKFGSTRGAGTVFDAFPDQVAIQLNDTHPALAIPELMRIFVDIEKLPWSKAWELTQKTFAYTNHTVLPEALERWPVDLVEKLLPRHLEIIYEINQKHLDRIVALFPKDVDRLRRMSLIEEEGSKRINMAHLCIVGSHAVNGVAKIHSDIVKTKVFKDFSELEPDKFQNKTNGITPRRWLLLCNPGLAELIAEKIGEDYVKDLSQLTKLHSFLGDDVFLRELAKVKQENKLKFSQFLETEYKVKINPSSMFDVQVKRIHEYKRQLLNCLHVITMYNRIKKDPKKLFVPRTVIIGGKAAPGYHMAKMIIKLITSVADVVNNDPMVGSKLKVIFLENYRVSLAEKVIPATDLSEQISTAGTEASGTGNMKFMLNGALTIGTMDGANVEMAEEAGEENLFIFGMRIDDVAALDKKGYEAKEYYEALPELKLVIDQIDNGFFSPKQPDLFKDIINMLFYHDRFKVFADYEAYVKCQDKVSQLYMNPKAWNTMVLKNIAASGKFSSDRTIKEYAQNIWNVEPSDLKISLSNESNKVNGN

[2] = target: T2, Glycogen phosphorylase, muscle form (Homo sapiens, UniProt P11217); assay: Inhibitory concentration against recombinant human muscle glycogen phosphorylase a (HMGPa); type: single protein
T2 sequence (P11217 whole entry): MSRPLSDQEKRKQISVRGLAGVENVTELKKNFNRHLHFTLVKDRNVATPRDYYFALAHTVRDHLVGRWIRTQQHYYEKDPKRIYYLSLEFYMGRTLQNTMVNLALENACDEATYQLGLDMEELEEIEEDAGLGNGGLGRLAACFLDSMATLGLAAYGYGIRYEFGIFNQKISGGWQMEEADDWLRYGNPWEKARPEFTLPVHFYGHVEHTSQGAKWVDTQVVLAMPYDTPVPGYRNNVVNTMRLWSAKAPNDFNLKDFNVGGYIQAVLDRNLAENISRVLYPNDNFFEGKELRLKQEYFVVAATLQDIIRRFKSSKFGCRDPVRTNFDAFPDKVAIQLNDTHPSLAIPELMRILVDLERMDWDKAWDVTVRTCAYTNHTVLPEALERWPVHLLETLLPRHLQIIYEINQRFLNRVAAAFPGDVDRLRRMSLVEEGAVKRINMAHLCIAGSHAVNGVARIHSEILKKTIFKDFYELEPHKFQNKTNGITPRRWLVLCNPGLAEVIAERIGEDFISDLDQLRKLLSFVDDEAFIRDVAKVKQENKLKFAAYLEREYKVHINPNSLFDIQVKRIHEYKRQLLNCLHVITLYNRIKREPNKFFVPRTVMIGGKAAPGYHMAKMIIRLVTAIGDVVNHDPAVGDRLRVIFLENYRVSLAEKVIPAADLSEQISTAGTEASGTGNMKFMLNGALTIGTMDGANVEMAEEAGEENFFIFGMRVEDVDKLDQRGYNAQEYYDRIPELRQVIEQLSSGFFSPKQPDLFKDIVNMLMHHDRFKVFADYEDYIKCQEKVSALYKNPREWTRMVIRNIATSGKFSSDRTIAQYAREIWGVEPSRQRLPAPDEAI

Rattus norvegicus = organism: Rattus norvegicus; assay: Inhibition of glucose production in glucagon-stimulated glycogenolysis in primary rat hepatocytes; type: functional; conditions: Hepatocyte

SMILES | IC50 [1] | IC50 [2] | EC50 (Rattus norvegicus)
CN1C(=O)C(NC(=O)c2cc3cc(Br)ccc3[nH]2)Cc2ccccc21 (configuration not stated) | 30 nM | 73 nM | –
O=C(N[C@H]1Cc2ccccc2NC1=O)c1cc2cc(Cl)ccc2[nH]1 | 47 nM | 39 nM | 7800 nM
CN1C(=O)[C@H](NC(=O)c2cc3cc(Cl)ccc3[nH]2)Cc2ccccc21 | 61 nM | 58 nM | 13200 nM
COC(=O)c1ccc2[nH]c(C(=O)NC3Cc4ccccc4N(C)C3=O)cc2c1 (configuration not stated) | 5300 nM | 2700 nM | –
CN1C(=O)C(NC(=O)c2cc3ccccc3[nH]2)Cc2ccccc21 (configuration not stated) | 160 nM | 56 nM | –
COc1ccc2[nH]c(C(=O)NC3Cc4ccccc4N(C)C3=O)cc2c1 (configuration not stated) | 1700 nM | 1700 nM | –
CN1C(=O)C(NC(=O)c2cc3cccc(N)c3[nH]2)Cc2ccccc21 (configuration not stated) | 1200 nM | 6800 nM | –
O=C(N[C@@H]1Cc2ccccc2N(Cc2ccccn2)C1=O)c1cc2cc(Cl)ccc2[nH]1 | 120 nM | – | 14500 nM
Cc1ccc2[nH]c(C(=O)NC3Cc4ccccc4N(C)C3=O)cc2c1 (configuration not stated) | 120 nM | 98 nM | –
CN1C(=O)C(NC(=O)c2cc3cc(F)ccc3[nH]2)Cc2ccccc21 (configuration not stated) | 120 nM | 89 nM | –
COC(=O)c1cc2[nH]c(C(=O)NC3Cc4ccccc4N(C)C3=O)cc2cc1Cl (configuration not stated) | > 20000 nM | > 20000 nM | –
CN1C(=O)C(NC(=O)c2cc3cc(-c4ccccc4)ccc3[nH]2)Cc2ccccc21 (configuration not stated) | > 20000 nM | > 20000 nM | –
CN1C(=O)C(NC(=O)c2cc3cc(C#N)ccc3[nH]2)Cc2ccccc21 (configuration not stated) | 180 nM | 110 nM | –
O=C(N[C@H]1Cc2ccccc2N(Cc2ccccn2)C1=O)c1cc2cc(Cl)ccc2[nH]1 | 140 nM | – | 11600 nM
CCc1ccc2[nH]c(C(=O)NC3Cc4ccccc4N(C)C3=O)cc2c1 (configuration not stated) | 2500 nM | 850 nM | –
CN1C(=O)C(NC(=O)c2cc3cccc([N+](=O)[O-])c3[nH]2)Cc2ccccc21 (configuration not stated) | 300 nM | 120 nM | –
O=C(N[C@@H]1Cc2ccccc2NC1=O)c1cc2cc(Cl)ccc2[nH]1 | 25 nM | 14 nM | 1800 nM

SMILES | IC50 [1] | IC50 [2] | EC50 (Rattus norvegicus)
O=C(NC1Cc2ccccc2NC1=O)c1ccc(Cl)c(Cl)c1 (configuration not stated) | 1370 nM | 2310 nM | –
CN1C(=O)C(NC(=O)c2cc3ccc(-c4ccccc4)cc3[nH]2)Cc2ccccc21 (configuration not stated) | > 20000 nM | > 20000 nM | –
CN1C(=O)[C@@H](NC(=O)c2cc3cc(Cl)ccc3[nH]2)Cc2ccccc21 | 57 nM | 57 nM | 8400 nM
CN1C(=O)C(NC(=O)c2cc3cc(C(F)(F)F)ccc3[nH]2)Cc2ccccc21 (configuration not stated) | 1500 nM | 550 nM | –
CN1C(=O)C(NC(=O)c2cc3cc(Cl)ccc3[nH]2)CCc2ccccc21 (configuration not stated) | 305 nM | 105 nM | –
COC(=O)c1c(Cl)ccc2[nH]c(C(=O)NC3Cc4ccccc4N(C)C3=O)cc12 (configuration not stated) | > 20000 nM | > 20000 nM | –
O=C(NC1CCc2ccccc2NC1=O)c1cc2ccccc2[nH]1 (configuration not stated) | 1060 nM | 2440 nM | –
CN1C(=O)C(NC(=O)c2cc3cc(Cl)cc(F)c3[nH]2)Cc2ccccc21 (configuration not stated) | 83 nM | 55 nM | –
CN1C(=O)C(NC(=O)c2cc3c(Cl)cccc3[nH]2)Cc2ccccc21 (configuration not stated) | 1600 nM | 2100 nM | –
CN1C(=O)C(NC(=O)c2cc3ccc(Cl)cc3[nH]2)Cc2ccccc21 (configuration not stated) | 99 nM | 69 nM | –
Cc1n[nH]c(CN2C(=O)C(NC(=O)c3cc4cc(Cl)ccc4[nH]3)Cc3ccccc32)n1 (racemic) | 140 nM | – | 1200 nM
O=C(NC1Cc2ccccc2N(Cc2cccnc2)C1=O)c1cc2cc(Cl)ccc2[nH]1 (racemic) | 130 nM | – | 16600 nM
O=C(NC1Cc2ccccc2N(Cc2ccccn2)C1=O)c1cc2cc(Cl)ccc2[nH]1 (racemic) | 110 nM | – | 20700 nM
O=C(NC1CCc2ccccc2NC1=O)c1ccc(Cl)c(Cl)c1 (racemic) | 6400 nM | 21700 nM | –
O=C(NC1Cc2ccccc2NC1=O)c1cc2cc(Cl)ccc2[nH]1 (racemic) | 44 nM | 38 nM | –
CN1C(=O)C(NC(=O)c2cc3cc(Cl)ccc3[nH]2)Cc2ccccc21 (racemic) | 25 nM | 32 nM | –
O=C(NC1Cc2ccccc2N(Cc2nnc(-c3ncc[nH]3)[nH]2)C1=O)c1cc2cc(Cl)ccc2[nH]1 (racemic) | 160 nM | – | 3700 nM
